Tests used:
[1] = biological target: Vascular endothelial growth factor receptor 2 (Homo sapiens, UniProt P35968); assay: Inhibition of VEGFR2 (unknown origin) incubated for 30 mins by enzyme immunoassay
[2] = biological target: Epidermal growth factor receptor (Homo sapiens, UniProt P00533); assay: Inhibition of EGFR (unknown origin) incubated for 30 mins by enzyme immunoassay
HeLa = assay: Antiproliferative activity against human HeLa cells assessed as inhibition of cell proliferation incubated for 48 hrs by MTT assay; assay type: functional, cell-based
MCF7 [3] = assay: Antiproliferative activity against human MCF7 cells assessed as inhibition of cell proliferation incubated for 48 hrs by MTT assay; assay type: functional, cell-based; settings: MCF7, 48 h
[4] = Inhibition of PDGFR (unknown origin) incubated for 30 mins by enzyme immunoassay; parameters: species or system Homo sapiens
HepG2 = assay: Antiproliferative activity against human HepG2 cells assessed as inhibition of cell proliferation incubated for 48 hrs by MTT assay; assay type: functional, cell-based; settings: HepG2, 48 h
A549 = assay: Antiproliferative activity against human A549 cells assessed as inhibition of cell proliferation incubated for 48 hrs by MTT assay; assay type: functional, cell-based; settings: A549, 48 h
[5] = biological target: Fibroblast growth factor receptor 1 (Homo sapiens, UniProt P11362); assay: Inhibition of bFGFR (unknown origin) incubated for 30 mins by enzyme immunoassay
Chain of Fibroblast growth factor receptor 1 (P11362 whole entry): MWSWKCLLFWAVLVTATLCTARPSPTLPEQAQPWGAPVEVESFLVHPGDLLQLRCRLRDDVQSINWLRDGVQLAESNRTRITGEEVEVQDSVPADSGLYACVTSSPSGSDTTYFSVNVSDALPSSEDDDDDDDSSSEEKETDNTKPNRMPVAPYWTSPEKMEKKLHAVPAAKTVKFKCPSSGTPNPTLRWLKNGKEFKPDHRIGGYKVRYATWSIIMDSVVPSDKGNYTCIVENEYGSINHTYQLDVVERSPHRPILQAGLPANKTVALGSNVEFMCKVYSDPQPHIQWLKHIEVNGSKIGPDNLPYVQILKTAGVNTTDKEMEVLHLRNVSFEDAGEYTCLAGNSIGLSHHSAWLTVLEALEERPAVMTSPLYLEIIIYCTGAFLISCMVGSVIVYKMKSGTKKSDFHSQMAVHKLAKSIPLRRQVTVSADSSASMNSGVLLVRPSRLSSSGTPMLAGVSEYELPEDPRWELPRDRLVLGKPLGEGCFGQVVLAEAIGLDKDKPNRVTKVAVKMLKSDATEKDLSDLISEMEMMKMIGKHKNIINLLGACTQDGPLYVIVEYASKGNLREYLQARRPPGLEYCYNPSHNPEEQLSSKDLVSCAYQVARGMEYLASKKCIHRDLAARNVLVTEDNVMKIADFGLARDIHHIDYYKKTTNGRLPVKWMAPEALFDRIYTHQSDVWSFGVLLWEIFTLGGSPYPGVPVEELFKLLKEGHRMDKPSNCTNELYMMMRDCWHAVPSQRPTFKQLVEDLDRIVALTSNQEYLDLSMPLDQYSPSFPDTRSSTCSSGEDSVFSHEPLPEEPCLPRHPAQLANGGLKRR

MCF7 [6] = assay: Induction of apoptosis in human MCF7 cells assessed as late necrotic cells level at 4 uM incubated for 24 hrs by Annexin V-FITC/PI double staining based flow cytometry analysis (reference value: 6.88%); assay type: functional
MCF7 [7] = assay: Induction of apoptosis in human MCF7 cells assessed as viable cells level at 2 uM incubated for 24 hrs by Annexin V-FITC/PI double staining based flow cytometry analysis (reference value: 82%); assay type: functional
MCF7 [8] = assay: Induction of apoptosis in human MCF7 cells assessed as early apoptotic cells level at 4 uM incubated for 24 hrs by Annexin V-FITC/PI double staining based flow cytometry analysis (reference value: 6.37%); assay type: functional
MCF7 [9] = assay: Induction of apoptosis in human MCF7 cells assessed as early apoptotic cells level at 4 uM incubated for 12 hrs by Annexin V-FITC/PI double staining based flow cytometry analysis (reference value: 1.06%); assay type: functional
MCF7 [10] = assay: Induction of apoptosis in human MCF7 cells assessed as viable cells level at 4 uM incubated for 12 hrs by Annexin V-FITC/PI double staining based flow cytometry analysis (reference value: 89%); assay type: functional
MCF7 [11] = assay: Induction of apoptosis in human MCF7 cells assessed as late apoptotic cells level at 2 uM incubated for 24 hrs by Annexin V-FITC/PI double staining based flow cytometry analysis (reference value: 10.1%); assay type: functional
MCF7 [12] = assay: Induction of apoptosis in human MCF7 cells assessed as viable cells level at 4 uM incubated for 24 hrs by Annexin V-FITC/PI double staining based flow cytometry analysis (reference value: 82%); assay type: functional
MCF7 [13] = assay: Induction of apoptosis in human MCF7 cells assessed as viable cells level at 4 uM incubated for 24 hrs by Annexin V-FITC/PI double staining based flow cytometry analysis (reference value: 89%); assay type: functional
MCF7 [14] = assay: Induction of apoptosis in human MCF7 cells assessed as late apoptotic cells level at 4 uM incubated for 24 hrs by Annexin V-FITC/PI double staining based flow cytometry analysis (reference value: 10.1%); assay type: functional
MCF7 [15] = assay: Induction of apoptosis in human MCF7 cells assessed as late apoptotic cells level at 4 uM incubated for 24 hrs by Annexin V-FITC/PI double staining based flow cytometry analysis (reference value: 3.1%); assay type: functional
MCF7 [16] = assay: Induction of apoptosis in human MCF7 cells assessed as late necrotic cells level at 4 uM incubated for 12 hrs by Annexin V-FITC/PI double staining based flow cytometry analysis (reference value: 6.88%); assay type: functional
MCF7 [17] = assay: Induction of apoptosis in human MCF7 cells assessed as viable cells level at 4 uM incubated for 36 hrs by Annexin V-FITC/PI double staining based flow cytometry analysis (reference value: 89%); assay type: functional
MCF7 [18] = assay: Induction of apoptosis in human MCF7 cells assessed as early apoptotic cells level at 4 uM incubated for 36 hrs by Annexin V-FITC/PI double staining based flow cytometry analysis (reference value: 1.06%); assay type: functional
MCF7 [19] = assay: Induction of apoptosis in human MCF7 cells assessed as late apoptotic cells level at 8 uM incubated for 24 hrs by Annexin V-FITC/PI double staining based flow cytometry analysis (reference value: 10.1%); assay type: functional
MCF7 [20] = assay: Induction of apoptosis in human MCF7 cells assessed as late necrotic cells level at 2 uM incubated for 24 hrs by Annexin V-FITC/PI double staining based flow cytometry analysis (reference value: 1.49%); assay type: functional
MCF7 [21] = assay: Induction of apoptosis in human MCF7 cells assessed as early apoptotic cells level at 8 uM incubated for 24 hrs by Annexin V-FITC/PI double staining based flow cytometry analysis (reference value: 6.37%); assay type: functional
MCF7 [22] = assay: Induction of apoptosis in human MCF7 cells assessed as late necrotic cells level at 4 uM incubated for 24 hrs by Annexin V-FITC/PI double staining based flow cytometry analysis (reference value: 1.49%); assay type: functional
MCF7 [23] = assay: Induction of apoptosis in human MCF7 cells assessed as viable cells level at 8 uM incubated for 24 hrs by Annexin V-FITC/PI double staining based flow cytometry analysis (reference value: 82%); assay type: functional
MCF7 [24] = assay: Induction of apoptosis in human MCF7 cells assessed as early apoptotic cells level at 4 uM incubated for 24 hrs by Annexin V-FITC/PI double staining based flow cytometry analysis (reference value: 1.06%); assay type: functional
MCF7 [25] = assay: Induction of apoptosis in human MCF7 cells assessed as late necrotic cells level at 8 uM incubated for 24 hrs by Annexin V-FITC/PI double staining based flow cytometry analysis (reference value: 1.49%); assay type: functional
MCF7 [26] = assay: Induction of apoptosis in human MCF7 cells assessed as late apoptotic cells level at 4 uM incubated for 12 hrs by Annexin V-FITC/PI double staining based flow cytometry analysis (reference value: 3.1%); assay type: functional
MCF7 [27] = assay: Induction of apoptosis in human MCF7 cells assessed as late necrotic cells level at 4 uM incubated for 36 hrs by Annexin V-FITC/PI double staining based flow cytometry analysis (reference value: 6.88%); assay type: functional
MCF7 [28] = assay: Induction of apoptosis in human MCF7 cells assessed as early apoptotic cells level at 2 uM incubated for 24 hrs by Annexin V-FITC/PI double staining based flow cytometry analysis (reference value: 6.37%); assay type: functional
MCF7 [29] = assay: Induction of apoptosis in human MCF7 cells assessed as late apoptotic cells level at 4 uM incubated for 36 hrs by Annexin V-FITC/PI double staining based flow cytometry analysis (reference value: 3.1%); assay type: functional
[30] = Cytotoxicity in HEK293T cells assessed as reduction in cell viability incubated for 48 hrs by MTT assay; assay type: cell-based, HEK-293T; settings: human

Chain of Vascular endothelial growth factor receptor 2 (P35968 whole entry): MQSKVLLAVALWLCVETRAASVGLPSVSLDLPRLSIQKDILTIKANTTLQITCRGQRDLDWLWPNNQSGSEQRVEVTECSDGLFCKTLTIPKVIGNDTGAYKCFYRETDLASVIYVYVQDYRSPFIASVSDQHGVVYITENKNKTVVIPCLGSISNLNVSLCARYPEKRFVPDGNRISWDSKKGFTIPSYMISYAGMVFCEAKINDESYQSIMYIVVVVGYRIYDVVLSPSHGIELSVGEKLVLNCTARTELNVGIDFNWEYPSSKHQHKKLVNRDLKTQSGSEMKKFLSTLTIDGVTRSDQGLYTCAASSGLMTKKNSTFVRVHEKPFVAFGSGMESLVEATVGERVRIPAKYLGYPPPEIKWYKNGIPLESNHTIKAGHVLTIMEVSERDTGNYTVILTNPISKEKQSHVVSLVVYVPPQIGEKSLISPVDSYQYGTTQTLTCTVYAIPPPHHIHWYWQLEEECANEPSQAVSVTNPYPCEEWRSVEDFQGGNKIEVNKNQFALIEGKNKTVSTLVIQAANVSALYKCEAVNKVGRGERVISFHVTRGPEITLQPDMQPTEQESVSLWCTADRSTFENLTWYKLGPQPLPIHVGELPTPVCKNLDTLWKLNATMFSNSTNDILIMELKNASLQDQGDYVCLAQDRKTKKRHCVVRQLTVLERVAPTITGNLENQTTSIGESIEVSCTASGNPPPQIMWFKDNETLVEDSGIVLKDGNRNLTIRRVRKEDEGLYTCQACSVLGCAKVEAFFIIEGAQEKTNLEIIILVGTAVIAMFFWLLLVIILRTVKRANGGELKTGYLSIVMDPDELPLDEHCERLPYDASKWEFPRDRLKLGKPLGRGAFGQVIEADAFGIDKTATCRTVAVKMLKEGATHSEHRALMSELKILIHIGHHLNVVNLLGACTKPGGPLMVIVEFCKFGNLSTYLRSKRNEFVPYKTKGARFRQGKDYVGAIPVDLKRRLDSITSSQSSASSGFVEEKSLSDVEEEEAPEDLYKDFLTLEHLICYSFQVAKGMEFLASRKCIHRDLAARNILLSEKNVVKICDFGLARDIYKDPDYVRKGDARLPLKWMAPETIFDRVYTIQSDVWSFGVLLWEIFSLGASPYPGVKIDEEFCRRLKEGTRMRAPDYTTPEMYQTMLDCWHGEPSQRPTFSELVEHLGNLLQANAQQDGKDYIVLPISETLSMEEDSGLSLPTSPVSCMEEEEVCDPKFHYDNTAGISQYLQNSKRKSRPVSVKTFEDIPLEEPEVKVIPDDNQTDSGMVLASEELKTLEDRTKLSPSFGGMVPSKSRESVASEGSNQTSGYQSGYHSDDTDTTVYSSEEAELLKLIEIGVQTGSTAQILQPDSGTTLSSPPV
Chain of Epidermal growth factor receptor (P00533 whole entry): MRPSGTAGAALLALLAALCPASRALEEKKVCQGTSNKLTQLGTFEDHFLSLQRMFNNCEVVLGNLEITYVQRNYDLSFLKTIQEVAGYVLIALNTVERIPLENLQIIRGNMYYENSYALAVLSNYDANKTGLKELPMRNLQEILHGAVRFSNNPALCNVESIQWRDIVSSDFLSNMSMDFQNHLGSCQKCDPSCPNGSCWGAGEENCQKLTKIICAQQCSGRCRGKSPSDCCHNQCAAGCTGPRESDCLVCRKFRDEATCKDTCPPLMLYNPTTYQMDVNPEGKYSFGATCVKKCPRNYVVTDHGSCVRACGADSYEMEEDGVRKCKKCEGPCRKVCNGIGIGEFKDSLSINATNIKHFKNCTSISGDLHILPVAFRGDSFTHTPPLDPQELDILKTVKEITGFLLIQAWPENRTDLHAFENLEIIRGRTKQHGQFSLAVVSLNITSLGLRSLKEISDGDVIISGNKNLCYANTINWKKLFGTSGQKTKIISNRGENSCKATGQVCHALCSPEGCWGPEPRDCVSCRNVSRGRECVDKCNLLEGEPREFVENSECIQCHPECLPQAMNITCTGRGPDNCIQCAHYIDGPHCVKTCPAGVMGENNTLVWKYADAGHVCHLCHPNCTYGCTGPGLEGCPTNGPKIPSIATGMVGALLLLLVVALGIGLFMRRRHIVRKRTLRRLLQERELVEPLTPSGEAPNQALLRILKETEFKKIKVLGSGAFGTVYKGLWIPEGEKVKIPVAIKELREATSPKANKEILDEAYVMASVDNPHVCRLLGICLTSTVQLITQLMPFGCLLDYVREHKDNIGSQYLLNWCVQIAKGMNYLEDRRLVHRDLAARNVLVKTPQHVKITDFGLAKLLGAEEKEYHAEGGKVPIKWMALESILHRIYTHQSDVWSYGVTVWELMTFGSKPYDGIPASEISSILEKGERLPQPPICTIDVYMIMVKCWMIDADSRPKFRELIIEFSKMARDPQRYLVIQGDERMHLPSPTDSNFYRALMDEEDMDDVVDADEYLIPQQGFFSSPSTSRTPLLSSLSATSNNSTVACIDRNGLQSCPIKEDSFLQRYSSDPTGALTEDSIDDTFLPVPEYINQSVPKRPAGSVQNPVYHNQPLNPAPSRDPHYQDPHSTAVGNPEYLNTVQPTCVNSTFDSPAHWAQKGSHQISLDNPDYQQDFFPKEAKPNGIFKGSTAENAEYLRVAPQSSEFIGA

## COc1ccc(-n2cc(NC(=O)c3cccc(NS(=O)(=O)c4ccccc4)c3)cn2)cc1
[1]
  IC50: 10.4 µM
[2]
  IC50: 27 µM
HeLa
  IC50: 42.2 µM
MCF7 [3]
  IC50: 18.7 µM
[4]
  IC50: 38.5 µM
HepG2
  IC50: 35.7 µM
A549
  IC50: 76.8 µM
[5]
  IC50: 37 µM

## CCCS(=O)(=O)Nc1ccc(F)c(C(=O)c2c[nH]c3ncc(-c4ccc(Cl)cc4)cc23)c1F [VEMURAFENIB]
MCF7 [6]
  Activity: 1.81%
MCF7 [7]
  Activity: 74.6%
MCF7 [8]
  Activity: 8.13%
MCF7 [9]
  Activity: 14.2%
MCF7 [10]
  Activity: 70.7%
MCF7 [11]
  Activity: 14.9%
MCF7 [12]
  Activity: 66.7%
MCF7 [13]
  Activity: 66.4%
MCF7 [14]
  Activity: 21.7%
MCF7 [15]
  Activity: 16.7%
MCF7 [16]
  Activity: 1.24%
MCF7 [17]
  Activity: 50.7%
MCF7 [18]
  Activity: 34.7%
MCF7 [19]
  Activity: 26.3%
MCF7 [20]
  Activity: 2.29%
MCF7 [21]
  Activity: 14.4%
MCF7 [22]
  Activity: 3.53%
MCF7 [23]
  Activity: 57.2%
MCF7 [24]
  Activity: 15.1%
MCF7 [25]
  Activity: 2.02%
MCF7 [26]
  Activity: 13.9%
MCF7 [27]
  Activity: 0.853%
MCF7 [28]
  Activity: 8.28%
MCF7 [29]
  Activity: 13.7%

## COc1cccc(-n2cc(NC(=O)c3ccc(NS(=O)(=O)c4ccccc4)cc3)cn2)c1
[1]
  IC50: 16.2 µM
[2]
  IC50: 24.1 µM
HeLa
  IC50: 66.2 µM
MCF7 [3]
  IC50: 28.4 µM
[4]
  IC50: 39.5 µM
HepG2
  IC50: 64.2 µM
A549
  IC50: > 100 µM
[5]
  IC50: 47.5 µM

## COc1cc2c(Nc3ccc(Br)cc3F)ncnc2cc1OCC1CCN(C)CC1 [VANDETANIB]
[30]
  CC50 at 48 h: 172 µM

## COc1cccc(-n2cc(NC(=O)c3cccc(NS(=O)(=O)c4ccc(Cl)cc4)c3)cn2)c1
[1]
  IC50: 5.97 µM
[2]
  IC50: 15.6 µM
HeLa
  IC50: 25 µM
MCF7 [3]
  IC50: 9.43 µM
[4]
  IC50: 24.4 µM
[30]
  CC50 at 48 h: 133 µM
HepG2
  IC50: 19.6 µM
A549
  IC50: 44.4 µM
[5]
  IC50: 22.2 µM

## Cn1cc(NC(=O)c2cccc(NS(=O)(=O)c3ccc(Cl)cc3)c2)cn1
[1]
  IC50: 17.4 µM
HeLa
  IC50: 63 µM
MCF7 [3]
  IC50: 32.3 µM
[4]
  IC50: 39.9 µM
HepG2
  IC50: 82.7 µM
A549
  IC50: > 100 µM
[5]
  IC50: 58.9 µM

## O=C(Nc1cnn(-c2ccccc2)c1)c1cccc(NS(=O)(=O)c2ccc(Cl)cc2)c1
[1]
  IC50: 2.39 µM
[2]
  IC50: 10.6 µM
HeLa
  IC50: 5.41 µM
MCF7 [3]
  IC50: 3.13 µM
[4]
  IC50: 17.6 µM
[30]
  CC50 at 48 h: 120 µM
HepG2
  IC50: 8.54 µM
A549
  IC50: 19.3 µM
[5]
  IC50: 18.5 µM

## Cc1ccc(-n2cc(NC(=O)c3ccc(NS(=O)(=O)c4ccccc4)cc3)cn2)cc1
[1]
  IC50: 6.85 µM
[2]
  IC50: 18.3 µM
HeLa
  IC50: 27.9 µM
MCF7 [3]
  IC50: 10.9 µM
[4]
  IC50: 26 µM
[30]
  CC50 at 48 h: 107 µM
HepG2
  IC50: 18.1 µM
A549
  IC50: 54.7 µM
[5]
  IC50: 28.1 µM

## O=C(Nc1cnn(-c2ccccc2)c1)c1ccc(NS(=O)(=O)c2ccccc2)cc1
[1]
  IC50: 10.1 µM
[2]
  IC50: 25.4 µM
HeLa
  IC50: 37.1 µM
MCF7 [3]
  IC50: 17.1 µM
[4]
  IC50: 34.6 µM
HepG2
  IC50: 21.5 µM
A549
  IC50: 87.1 µM
[5]
  IC50: 35.9 µM

## O=C(Nc1cnn(-c2ccccc2)c1)c1cccc(NS(=O)(=O)c2ccccc2)c1
[1]
  IC50: 3.26 µM
[2]
  IC50: 15.4 µM
HeLa
  IC50: 15.3 µM
MCF7 [3]
  IC50: 4.32 µM
[4]
  IC50: 18.6 µM
[30]
  CC50 at 48 h: 110 µM
HepG2
  IC50: 10.1 µM
A549
  IC50: 26.8 µM
[5]
  IC50: 18.2 µM
